Holding throughout (assay type): biochemical
Assay [1] has as its target CSNK1D (Homo sapiens (Human), UniProt P48730). Briefly: CSNK1D Assay (ADP-Glo, 1 μM ATP). Conditions: median, read-out: CSNK1D IC50 [mol/l] (median). The essentials:
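Enzyme preincubated with compound 15 min at 22° C in 50 mM HEPES pH 7.5 buffer with 10 mM MgCl2, 1 mM DTT; kinase reaction run at 1 μM ATP with biotinylated peptide substrate. ADP formed was detected by ADP-Glo luminescence as the measure of activity.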
(In ADP-Glo the light output rises with the ADP produced.)

The target in assay [2] is wild-type Epidermal Growth Factor Receptor (EGFR) (Homo sapiens (Human), UniProt P00533). In words: WT-EGFR Kinase Assay (TR-FRET, 2 mM ATP). The essentials:
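GST-tagged human EGFR (R669–A1210, Sf9-expressed) preincubated 15 min at 22° C with compound in pH 7.0 Hepes/MgCl2 buffer, then reacted at 2 mM ATP with a biotinylated peptide substrate. Phosphorylation detected by TR-FRET (streptavidin-XL665, Tb-cryptate anti-phosphotyrosine) as the 665/620 nm emission ratio.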

Assay [3] concerns the target CSNK1A1 (Homo sapiens (Human), UniProt P48729). In words: CSNK1A1 Assay 2 (ADP-Glo, 1 μM ATP). Conditions: median, read-out: CSNK1A1 Assay 2 IC50 [mol/l] (median). In short, it runs like this:
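Enzyme (~0.0375 ng/μL) preincubated 15 min at 22° C with compound in HEPES pH 7.5 buffer, then reacted with 1 μM ATP and biotin-Ahx-KRRRAL-pS-VASLPGL peptide. ADP product measured by ADP-Glo luminescence after 1 h ATP depletion and 1 h detection at 22° C.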

[4] abbreviates: read-out: EGFR Wildtyp 2 mM ATP IC50 [mol/l] (median), median or individual measurements.
[5] abbreviates: EGFR Wildtyp 2 mM ATP IC50 [mol/l] (median), median or individual measurements.

Where two headings read alike, the source gives them in different places. Some results are limits rather than exact numbers.

Sequence of wild-type Epidermal Growth Factor Receptor (EGFR) (P00533 669-1210): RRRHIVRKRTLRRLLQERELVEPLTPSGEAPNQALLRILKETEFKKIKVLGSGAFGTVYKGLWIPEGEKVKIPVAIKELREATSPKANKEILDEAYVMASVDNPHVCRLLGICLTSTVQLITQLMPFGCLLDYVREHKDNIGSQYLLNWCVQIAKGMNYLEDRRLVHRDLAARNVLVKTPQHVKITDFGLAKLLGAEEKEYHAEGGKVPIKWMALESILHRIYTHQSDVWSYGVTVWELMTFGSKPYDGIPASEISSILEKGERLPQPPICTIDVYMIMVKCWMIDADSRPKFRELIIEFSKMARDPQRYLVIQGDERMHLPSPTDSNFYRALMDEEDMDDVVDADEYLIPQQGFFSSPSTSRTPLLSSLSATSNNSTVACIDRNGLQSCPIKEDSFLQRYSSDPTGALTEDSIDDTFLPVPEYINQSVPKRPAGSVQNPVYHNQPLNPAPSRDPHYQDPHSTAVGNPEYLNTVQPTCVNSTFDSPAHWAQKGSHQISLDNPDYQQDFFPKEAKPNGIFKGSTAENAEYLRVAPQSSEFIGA
Sequence of CSNK1A1 (P48729 whole entry): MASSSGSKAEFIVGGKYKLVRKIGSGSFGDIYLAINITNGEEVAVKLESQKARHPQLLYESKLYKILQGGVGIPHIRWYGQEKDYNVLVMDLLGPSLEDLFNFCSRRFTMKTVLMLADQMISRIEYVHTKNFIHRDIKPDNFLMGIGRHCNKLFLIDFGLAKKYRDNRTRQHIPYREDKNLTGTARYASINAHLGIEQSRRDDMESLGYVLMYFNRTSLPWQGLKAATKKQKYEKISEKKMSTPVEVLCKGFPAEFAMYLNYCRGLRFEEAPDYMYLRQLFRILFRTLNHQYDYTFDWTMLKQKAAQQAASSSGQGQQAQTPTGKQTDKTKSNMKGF
Sequence of CSNK1D (P48730 whole entry): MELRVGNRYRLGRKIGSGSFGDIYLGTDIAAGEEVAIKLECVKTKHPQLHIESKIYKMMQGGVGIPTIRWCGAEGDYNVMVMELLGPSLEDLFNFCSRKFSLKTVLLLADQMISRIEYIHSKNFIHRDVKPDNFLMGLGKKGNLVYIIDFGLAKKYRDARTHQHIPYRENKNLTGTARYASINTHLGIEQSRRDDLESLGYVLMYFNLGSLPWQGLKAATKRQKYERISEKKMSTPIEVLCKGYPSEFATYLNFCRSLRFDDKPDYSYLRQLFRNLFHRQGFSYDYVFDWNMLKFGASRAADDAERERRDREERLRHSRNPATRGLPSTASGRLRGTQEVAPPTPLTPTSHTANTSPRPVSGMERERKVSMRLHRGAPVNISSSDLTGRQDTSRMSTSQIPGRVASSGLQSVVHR

For `O=C(Nc1cc(-c2[nH]c3ccn(C4CC4)c(=O)c3c2-c2ccc(F)cc2)ccn1)C(CC(F)F)c1ccc(F)cc1` (single isomer, unassigned; (+)) [Example 136, (+)-N-{4-[5-cyclopropyl-3-(4-fluorophenyl)-4-oxo-4,5-dihydro-1H-pyrrolo[3,2-c]pyridin-2-yl]pyridin-2-yl}-4,4-difluoro-2-(4-fluorophenyl)butanamide], the IC50 was 2.1 nM in assay [1], more than 20000 nM in assay [2] (setting [4]) and 3.1 nM in assay [3].

On to `O=C(Nc1cc(-c2[nH]c3ccn(C4CC4)c(=O)c3c2-c2ccccc2)ccn1)C(CC(F)F)c1ccc(F)cc1` (racemic) [Example 137, N-[4-(5-cyclopropyl-4-oxo-3-phenyl-4,5-dihydro-1H-pyrrolo[3,2-c]pyridin-2-yl)pyridin-2-yl]-4,4-difluoro-2-(4-fluorophenyl)butanamide], for which the IC50 in assay [1] was 3 nM; in assay [2] (setting [5]), more than 20000 nM; in assay [3], 2.6 nM.

As for `O=C1NCCc2[nH]c(-c3ccnc(NC(=O)C(CC(F)F)c4ccc(F)cc4)c3)c(-c3ccccc3)c21` (racemic) [Example 75, 4,4-difluoro-2-(4-fluorophenyl)-N-[4-(4-oxo-3-phenyl-4,5,6,7-tetrahydro-1H-pyrrolo[3,2-c]pyridin-2-yl)pyridin-2-yl]butanamide], the IC50 in assay [1] was 4.5 nM; in assay [2] (setting [5]), more than 20000 nM; in assay [3], 2.7 nM.

Regarding `CC1(C)Cc2[nH]c(-c3ccnc(NC(=O)Cc4ccc(F)cc4)c3)c(-c3ccc(Cl)cc3)c2C(=O)N1` [Example 90, N-{4-[3-(4-chlorophenyl)-6,6-dimethyl-4-oxo-4,5,6,7-tetrahydro-1H-pyrrolo[3,2-c]pyridin-2-yl]pyridin-2-yl}-2-(4-fluorophenyl)acetamide], the figures for the IC50 in assay [1], in assay [2] (setting [4]) and in assay [3] were 4.1 nM, more than 20000 nM and 3.2 nM, respectively.

For `CN1CC(C)(C)c2[nH]c(-c3ccnc(NC(=O)C(CC(F)F)c4ccc(F)cc4)c3)c(-c3ccccc3)c2C1=O` (single isomer, unassigned; (+)) [Example 152, (+)-4,4-difluoro-2-(4-fluorophenyl)-N-[4-(5,7,7-trimethyl-4-oxo-3-phenyl-4,5,6,7-tetrahydro-1H-pyrrolo[3,2-c]pyridin-2-yl)pyridin-2-yl]butanamide], the IC50 in assay [1] was 4.5 nM; in assay [2] (setting [4]), more than 20000 nM; in assay [3], 4.3 nM.

`Cc1cccc(-c2c(-c3ccnc(NC(=O)Cc4ccc(F)cc4)c3)[nH]c3c2C(=O)NC(C)(C)C3)c1` [Example 86, N-{4-[6,6-dimethyl-3-(3-methylphenyl)-4-oxo-4,5,6,7-tetrahydro-1H-pyrrolo[3,2-c]pyridin-2-yl]pyridin-2-yl}-2-(4-fluorophenyl)acetamide]: the IC50 is 5.2 nM in assay [1], more than 20000 nM in assay [2] (setting [4]) and 4 nM in assay [3].

Regarding `CC(C(=O)Nc1cc(-c2[nH]c3ccn(C)c(=O)c3c2-c2cccs2)ccn1)c1ccc(F)cc1` (racemic) [Example 130, 2-(4-fluorophenyl)-N-{4-[5-methyl-4-oxo-3-(2-thienyl)-4,5-dihydro-1H-pyrrolo[3,2-c]pyridin-2-yl]pyridin-2-yl}propanamide], the values for the IC50 in assay [1], in assay [2] (setting [5]) and in assay [3] were 3.9 nM, more than 20000 nM and 2.4 nM, respectively.

As to `O=C(Nc1cc(-c2[nH]c3c(c2-c2ccccc2)C(=O)N(C2CC2)CC3)ccn1)C(CC(F)F)c1ccc(F)cc1` (racemic) [Example 156, (2RS)—N-(4-(5-cyclopropyl-4-oxo-3-phenyl-4,5,6,7-tetrahydro-1H-pyrrolo[3,2-c]pyridin-2-yl)pyridin-2-yl)-4,4-difluoro-2-(4-fluorophenyl)butanamide], the IC50 in assay [1] is 3.1 nM; in assay [2] (setting [5]), more than 20000 nM; in assay [3], 2.3 nM.

Turning to `Cn1cc(CC(F)(F)F)c2[nH]c(-c3ccnc(NC(=O)C(CC(F)F)c4ccc(F)cc4)c3)c(-c3ccccn3)c2c1=O` (racemic) [Example 162, (2RS)-4,4-difluoro-2-(4-fluorophenyl)-N-{4-[5-methyl-4-oxo-3-(pyridin-2-yl)-7-(2,2,2-trifluoroethyl)-4,5-dihydro-1H-pyrrolo[3,2-c]pyridin-2-yl]pyridin-2-yl}butanamide], the IC50 is 12 nM in assay [1], more than 20000 nM in assay [2] (setting [5]) and 14 nM in assay [3].

For the compound `CC(C(=O)Nc1cc(-c2[nH]c3ccn(C)c(=O)c3c2-c2ccc(F)cc2)ccn1)c1ccc(F)cc1` (single isomer, unassigned; (+)) [Example 102, (+)-2-(4-fluorophenyl)-N-{4-[3-(4-fluorophenyl)-5-methyl-4-oxo-4,5-dihydro-1H-pyrrolo[3,2-c]pyridin-2-yl]pyridin-2-yl}propanamide], the IC50 in assay [1] was determined as 2 nM; in assay [2] (setting [5]) it was 875 nM; in assay [3], 1 nM.

As for `CC(C(=O)Nc1cc(-c2[nH]c3c(c2-c2ccc(F)cc2)C(=O)NC(C)(C)C3)ccn1)c1ccc(F)cc1` (single isomer, unassigned) [Example 95, 2-(4-fluorophenyl)-N-{4-[3-(4-fluorophenyl)-6,6-dimethyl-4-oxo-4,5,6,7-tetrahydro-1H-pyrrolo[3,2-c]pyridin-2-yl]pyridin-2-yl}propanamide], the results for the IC50 in assay [1], in assay [2] (setting [5]) and in assay [3] were 4.6 nM, more than 20000 nM and 14 nM, respectively.

As to `O=C(Nc1cc(-c2[nH]c3ccn(C4CC4)c(=O)c3c2-c2ccc(F)cc2)ccn1)C(CC(F)F)c1ccc(F)cc1` (racemic) [Example 134, N-{4-[5-cyclopropyl-3-(4-fluorophenyl)-4-oxo-4,5-dihydro-1H-pyrrolo[3,2-c]pyridin-2-yl]pyridin-2-yl}-4,4-difluoro-2-(4-fluorophenyl)butanamide], the IC50 in assay [1] was 7 nM; in assay [2] (setting [5]), more than 20000 nM; in assay [3] it was 5.5 nM.

Turning to `Cc1ccc(-c2c(-c3ccnc(NC(=O)C(C)c4ccc(F)cc4)c3)[nH]c3ccn(C)c(=O)c23)s1` (racemic) [Example 125, 2-(4-fluorophenyl)-N-{4-[5-methyl-3-(5-methyl-2-thienyl)-4-oxo-4,5-dihydro-1H-pyrrolo[3,2-c]pyridin-2-yl]pyridin-2-yl}propanamide], the IC50 is 5.9 nM in assay [1], more than 1630 nM in assay [2] (setting [5]), more than 1630 nM in assay [2] (setting [4]) and 3.3 nM in assay [3].

As to `Cn1ccc2[nH]c(-c3ccnc(NC(=O)C(CC(F)F)c4ccc(F)cc4)c3)c(-c3ccc(F)cc3)c2c1=O` (single isomer, unassigned; (-)) [Example 108, (−)-4,4-difluoro-2-(4-fluorophenyl)-N-{4-[3-(4-fluorophenyl)-5-methyl-4-oxo-4,5-dihydro-1H-pyrrolo[3,2-c]pyridin-2-yl]pyridin-2-yl}butanamide], the IC50 amounted to 9.4 nM in assay [1], 663 nM in assay [2] (setting [5]) and 15 nM in assay [3].

Consider `Cn1ccc2[nH]c(-c3ccnc(NC(=O)C(CC(F)F)c4ccc(F)cc4)c3)c(-c3ccc(F)cc3)c2c1=O` (single isomer, unassigned; (+)) [Example 109, (+)-4,4-difluoro-2-(4-fluorophenyl)-N-{4-[3-(4-fluorophenyl)-5-methyl-4-oxo-4,5-dihydro-1H-pyrrolo[3,2-c]pyridin-2-yl]pyridin-2-yl}butanamide], for which the IC50 in assay [1] came to 3.7 nM; in assay [2] (setting [5]), 3850 nM; in assay [3], 2.1 nM.

As to `CC(C(=O)Nc1cc(-c2[nH]c3c(c2-c2ccc(F)cc2)C(=O)NC(C)(C)C3)ccn1)c1ccc(F)cc1` (racemic) [Example 94, 2-(4-fluorophenyl)-N-{4-[3-(4-fluorophenyl)-6,6-dimethyl-4-oxo-4,5,6,7-tetrahydro-1H-pyrrolo[3,2-c]pyridin-2-yl]pyridin-2-yl}propanamide], the IC50 in assay [1] is 3.2 nM; in assay [2] (setting [5]), more than 20000 nM; in assay [3], 3 nM.

Regarding `CC(C(=O)Nc1cc(-c2[nH]c3c(c2-c2ccccc2)C(=O)N(C)CC3)ccn1)c1ccncc1` (stereo not shown) [Example 154, N-[4-(5-methyl-4-oxo-3-phenyl-4,5,6,7-tetrahydro-1H-pyrrolo[3,2-c]pyridin-2-yl)pyridin-2-yl]-2-(pyridin-4-yl)propanamide], the IC50 in assay [1] was 6 nM; in assay [2] (setting [5]) it was more than 20000 nM; in assay [3] it was 5.1 nM.

Regarding `O=C(Nc1cc(-c2[nH]c3ccn(C4CC4)c(=O)c3c2-c2ccccc2)ccn1)C(CC(F)F)c1ccc(F)cc1` (single isomer, unassigned) [Example 157, (2R or S)—N-[4-(5-cyclopropyl-4-oxo-3-phenyl-4,5-dihydro-1H-pyrrolo[3,2-c]pyridin-2-yl)pyridin-2-yl]-4,4-difluoro-2-(4-fluorophenyl)butanamide], the IC50 is 2.3 nM in assay [1], more than 20000 nM in assay [2] (setting [5]) and 2 nM in assay [3].

For `Cn1ccc2[nH]c(-c3ccnc(NC(=O)C(CC(F)F)c4ccc(F)cc4)c3)c(-c3ccc(Cl)s3)c2c1=O` (racemic) [Example 133, N-{4-[3-(5-chloro-2-thienyl)-5-methyl-4-oxo-4,5-dihydro-1H-pyrrolo[3,2-c]pyridin-2-yl]pyridin-2-yl}-4,4-difluoro-2-(4-fluorophenyl)butanamide], the IC50 in assay [1] was 4.8 nM; in assay [2] (setting [5]), more than 20000 nM; in assay [3], 2.3 nM.

The values are drawn from patent publication US20230322767A1, “ARYL SUBSTITUTED PYRROLO-PYRIDINONES AND THERAPEUTIC USES THEREOF” (Bayer Aktiengesellschaft, priority 2020, published 2023).
